Tests used:
[1] = Tolerability in Sprague-Dawley rats: body and organ weight (Example 19); format: in vivo; settings: 50 mg/kg s.c. twice per week for 6 weeks, change over weight at start of study
Text: (§1) Urine samples were taken before the start of treatment.
The body weights are presented in Table 78 and are expressed as a percent change over the weights taken at the start of the study.

human Factor XI mRNA [2] = assay: Dose-dependent inhibition in cyno primary hepatocytes, electroporation (Example 6); format: cell-based, cynomolgus monkey; settings: approx. 16 h
Experimental: Cells were plated at a density of 35,000 cells per well and transfected via electroporation with 0.74 nM, 2.2 nM, 6.7 nM, 20 nM, 60 nM, and 180 nM concentrations of antisense oligonucleotide, as specified in Table 13. After a treatment period of approximately 16 hours, RNA was isolated from the cells and human Factor XI mRNA levels were measured by quantitative real-time PCR. Human Factor XI primer probe set RTS 2966 was used to measure mRNA levels. Factor XI mRNA levels were adjusted according to total RNA content, as measured by RIBOGREEN®. Results are presented as percent inhibition of human Factor XI, relative to untreated control cells.

human Factor XI mRNA [3] = assay: Dose-dependent inhibition in HepB3 cells, electroporation (Example 7); format: cell-based; settings: approx. 16 h
Experimental: The gapmers were also transfected via electroporation and their dose dependent inhibition of human Factor XI mRNA was measured. Cells were plated at a density of 20,000 cells per well and transfected via electroporation with 41.15 nM, 123.457 nM, 370.37 nM, 1111.11 nM, 3333.33 nM, and 10,000 nM concentrations of antisense oligonucleotide, as specified in Table 15. After a treatment period of approximately 16 hours, RNA was isolated from the cells and human Factor XI mRNA levels were measured by quantitative real-time PCR. Human Factor XI primer probe set RTS 2966 was used to measure mRNA levels. Factor XI mRNA levels were adjusted according to total RNA content, as measured by RIBOGREEN®. Results are presented as percent inhibition of human Factor XI, relative to untreated control cells.

human Factor XI mRNA [4] = assay: Dose-dependent inhibition in HepB3 cells, lipofectin (Example 7); format: cell-based; settings: approx. 16 h
Experimental: Cells were plated at a density of 4,000 cells per well and transfected using lipofectin reagent with 2.3 nM, 4.7 nM, 9.4 nM, 18.75 nM, 37.5 nM, and 75 nM concentrations of antisense oligonucleotide, as specified in Table 14. After a treatment period of approximately 16 hours, RNA was isolated from the cells and human Factor XI mRNA levels were measured by quantitative real-time PCR. Human Factor XI primer probe set RTS 2966 was used to measure mRNA levels. Factor XI mRNA levels were adjusted according to total RNA content, as measured by RIBOGREEN®. Results are presented as percent inhibition of Factor XI, relative to untreated control cells.

human Factor XI mRNA [5] = assay: Dose-dependent inhibition in HepG2 cells, lipofectin (Example 4); format: cell-based; settings: 16 hours
In short: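 Read-out was percent inhibition of Factor XI mRNA relative to untreated controls, by qRT-PCR (RTS 2966) adjusted for RIBOGREEN-measured total RNA. Cells received antisense oligonucleotide at 9.375 to 75 nM (four levels) via lipofectin. Treatment lasted approximately 16 hours, with plating at 10,000 cells per well.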

human Factor XI mRNA [6] = assay: Dose-dependent inhibition in HepG2 cells, electroporation (Example 5); format: cell-based; settings: approx. 16 h, relative to untreated control cells
Experimental: The gapmers were also transfected via electroporation and their dose dependent inhibition of human Factor XI mRNA was measured. Cells were plated at a density of 20,000 cells per well and transfected via electroporation with 625 nM, 1250 nM, 2500 nM, 5,000 nM, 10,000 nM, and 20,000 nM concentrations of antisense oligonucleotide, as specified in Table 12. After a treatment period of approximately 16 hours, RNA was isolated from the cells and human Factor XI mRNA levels were measured by quantitative real-time PCR. Human Factor XI primer probe set RTS 2966 was used to measure mRNA levels. Factor XI mRNA levels were adjusted according to total RNA content, as measured by RIBOGREEN®. Results are presented as percent inhibition of human Factor XI, relative to untreated control cells.

human Factor XI mRNA [7] = assay: Dose-dependent inhibition in HepG2 cells, electroporation (Example 4); format: cell-based; settings: 16 hours
In short: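 HepG2 cells electroporated with 0.7, 2.2, 6.7 or 20 μM antisense gapmer and harvested after ~16 h. Factor XI mRNA quantified by qRT-PCR (primer probe set RTS 2966), normalised to total RNA (RIBOGREEN). Reported as percent inhibition versus untreated control cells.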

human Factor XI mRNA [8] = assay: Dose-dependent inhibition in HepG2 cells, lipofectin (Example 5); format: cell-based; settings: 16 hours
Experimental: Cells were plated at a density of 10,000 cells per well and transfected using lipofectin reagent with 2.34 nM, 4.69 nM, 9.375 nM, 18.75 nM, 37.5 nM, and 75 nM concentrations of antisense oligonucleotide, as specified in Table 11. After a treatment period of approximately 16 hours, RNA was isolated from the cells and human Factor XI mRNA levels were measured by quantitative real-time PCR. Human Factor XI primer probe set RTS 2966 was used to measure mRNA levels. Factor XI mRNA levels were adjusted according to total RNA content, as measured by RIBOGREEN®. Results are presented as percent inhibition of human Factor XI, relative to untreated control cells.

[9] = Tolerability in Sprague-Dawley rats: kidney function (Example 19); format: in vivo; settings: Sprague Dawley rats; for urine protein/creatinine ratio, After: after 50 mg/kg s.c. twice per week for 6 weeks; for urine protein/creatinine ratio, Before: before antisense oligonucleotide treatment
Text: as §1

416826 (antisense ATGCCCTTCATGTCTAGGTC; 5-10-5 gapmer, wing sugar chemistry not given here, further chemistry not given here) [compound 416826]
Percent change in Body weight [1]: −40%
percent inhibition of human Factor XI mRNA (human Factor XI mRNA [2]; 0.74 nM): 13%
percent inhibition of human Factor XI mRNA (human Factor XI mRNA [2]; 2.2 nM): 24%
percent inhibition of human Factor XI mRNA (human Factor XI mRNA [2]; 6.7 nM): 34%
percent inhibition of human Factor XI mRNA (human Factor XI mRNA [2]; 20 nM): 67%
percent inhibition of human Factor XI mRNA (human Factor XI mRNA [2]; 60 nM): 69%
percent inhibition of human Factor XI mRNA (human Factor XI mRNA [2]; 180 nM): 71%
percent inhibition of human Factor XI mRNA (human Factor XI mRNA [3]; 41.15 nM): 0%
percent inhibition of human Factor XI mRNA (human Factor XI mRNA [3]; 123.457 nM): 0%
percent inhibition of human Factor XI mRNA (human Factor XI mRNA [3]; 370.37 nM): 34%
percent inhibition of human Factor XI mRNA (human Factor XI mRNA [3]; 1111.11 nM): 61%
percent inhibition of human Factor XI mRNA (human Factor XI mRNA [3]; 3333.33 nM): 87%
percent inhibition of human Factor XI mRNA (human Factor XI mRNA [3]; 10000 nM): 92%
percent inhibition of human Factor XI mRNA (human Factor XI mRNA [4]; 2.3 nM): 16%
percent inhibition of human Factor XI mRNA (human Factor XI mRNA [4]; 4.7 nM): 28%
percent inhibition of human Factor XI mRNA (human Factor XI mRNA [4]; 9.4 nM): 38%
percent inhibition of human Factor XI mRNA (human Factor XI mRNA [4]; 18.75 nM): 55%
percent inhibition of human Factor XI mRNA (human Factor XI mRNA [4]; 37.5 nM): 64%
percent inhibition of human Factor XI mRNA (human Factor XI mRNA [4]; 75 nM): 66%
percent inhibition of Factor XI mRNA, relative to untreated control cells (human Factor XI mRNA [5]; 9.375 nM): 8%
percent inhibition of Factor XI mRNA, relative to untreated control cells (human Factor XI mRNA [5]; 18.75 nM): 36%
percent inhibition of Factor XI mRNA, relative to untreated control cells (human Factor XI mRNA [5]; 37.5 nM): 58%
percent inhibition of Factor XI mRNA, relative to untreated control cells (human Factor XI mRNA [5]; 75 nM): 84%
percent inhibition of human Factor XI mRNA (human Factor XI mRNA [6]; 625 nM): 67%
percent inhibition of human Factor XI mRNA (human Factor XI mRNA [6]; 1250 nM): 82%
percent inhibition of human Factor XI mRNA (human Factor XI mRNA [6]; 2500 nM): 89%
percent inhibition of human Factor XI mRNA (human Factor XI mRNA [6]; 5000 nM): 92%
percent inhibition of human Factor XI mRNA (human Factor XI mRNA [6]; 10000 nM): 95%
percent inhibition of human Factor XI mRNA (human Factor XI mRNA [6]; 20000 nM): 97%
percent inhibition of Factor XI mRNA, relative to untreated control cells (human Factor XI mRNA [7]; 0.7 μM): 2%
percent inhibition of Factor XI mRNA, relative to untreated control cells (human Factor XI mRNA [7]; 2.2 μM): 47%
percent inhibition of Factor XI mRNA, relative to untreated control cells (human Factor XI mRNA [7]; 6.7 μM): 86%
percent inhibition of Factor XI mRNA, relative to untreated control cells (human Factor XI mRNA [7]; 20 μM): 82%
percent inhibition of human Factor XI mRNA, relative to untreated control cells (human Factor XI mRNA [8]; 2.34 nM): 15%
percent inhibition of human Factor XI mRNA, relative to untreated control cells (human Factor XI mRNA [8]; 4.69 nM): 22%
percent inhibition of human Factor XI mRNA, relative to untreated control cells (human Factor XI mRNA [8]; 9.375 nM): 32%
percent inhibition of human Factor XI mRNA, relative to untreated control cells (human Factor XI mRNA [8]; 18.75 nM): 54%
percent inhibition of human Factor XI mRNA, relative to untreated control cells (human Factor XI mRNA [8]; 37.5 nM): 76%
percent inhibition of human Factor XI mRNA, relative to untreated control cells (human Factor XI mRNA [8]; 75 nM): 90%
urine protein/creatinine ratio, After [9]: 11.4
urine protein/creatinine ratio, Before [9]: 1.0

416892 (antisense GCCCTTCATGTCTAGGTCCA; 3-14-3 chimeric gapmer, wing sugar chemistry not given here, further chemistry not given here) [compound 416892]
Percent change in Body weight [1]: −39%
percent inhibition of human Factor XI mRNA (human Factor XI mRNA [2]; 0.74 nM): 20%
percent inhibition of human Factor XI mRNA (human Factor XI mRNA [2]; 2.2 nM): 20%
percent inhibition of human Factor XI mRNA (human Factor XI mRNA [2]; 6.7 nM): 43%
percent inhibition of human Factor XI mRNA (human Factor XI mRNA [2]; 20 nM): 62%
percent inhibition of human Factor XI mRNA (human Factor XI mRNA [2]; 60 nM): 88%
percent inhibition of human Factor XI mRNA (human Factor XI mRNA [2]; 180 nM): 92%
percent inhibition of human Factor XI mRNA (human Factor XI mRNA [3]; 41.15 nM): 9%
percent inhibition of human Factor XI mRNA (human Factor XI mRNA [3]; 123.457 nM): 12%
percent inhibition of human Factor XI mRNA (human Factor XI mRNA [3]; 370.37 nM): 28%
percent inhibition of human Factor XI mRNA (human Factor XI mRNA [3]; 1111.11 nM): 65%
percent inhibition of human Factor XI mRNA (human Factor XI mRNA [3]; 3333.33 nM): 89%
percent inhibition of human Factor XI mRNA (human Factor XI mRNA [3]; 10000 nM): 98%
percent inhibition of human Factor XI mRNA (human Factor XI mRNA [4]; 2.3 nM): 28%
percent inhibition of human Factor XI mRNA (human Factor XI mRNA [4]; 4.7 nM): 34%
percent inhibition of human Factor XI mRNA (human Factor XI mRNA [4]; 9.4 nM): 50%
percent inhibition of human Factor XI mRNA (human Factor XI mRNA [4]; 18.75 nM): 68%
percent inhibition of human Factor XI mRNA (human Factor XI mRNA [4]; 37.5 nM): 82%
percent inhibition of human Factor XI mRNA (human Factor XI mRNA [4]; 75 nM): 72%
percent inhibition of Factor XI mRNA, relative to untreated control cells (human Factor XI mRNA [5]; 9.375 nM): 16%
percent inhibition of Factor XI mRNA, relative to untreated control cells (human Factor XI mRNA [5]; 18.75 nM): 50%
percent inhibition of Factor XI mRNA, relative to untreated control cells (human Factor XI mRNA [5]; 37.5 nM): 70%
percent inhibition of Factor XI mRNA, relative to untreated control cells (human Factor XI mRNA [5]; 75 nM): 85%
percent inhibition of human Factor XI mRNA (human Factor XI mRNA [6]; 625 nM): 66%
percent inhibition of human Factor XI mRNA (human Factor XI mRNA [6]; 1250 nM): 86%
percent inhibition of human Factor XI mRNA (human Factor XI mRNA [6]; 2500 nM): 96%
percent inhibition of human Factor XI mRNA (human Factor XI mRNA [6]; 5000 nM): 97%
percent inhibition of human Factor XI mRNA (human Factor XI mRNA [6]; 10000 nM): 100%
percent inhibition of human Factor XI mRNA (human Factor XI mRNA [6]; 20000 nM): 100%
percent inhibition of Factor XI mRNA, relative to untreated control cells (human Factor XI mRNA [7]; 0.7 μM): 14%
percent inhibition of Factor XI mRNA, relative to untreated control cells (human Factor XI mRNA [7]; 2.2 μM): 52%
percent inhibition of Factor XI mRNA, relative to untreated control cells (human Factor XI mRNA [7]; 6.7 μM): 82%
percent inhibition of Factor XI mRNA, relative to untreated control cells (human Factor XI mRNA [7]; 20 μM): 92%
percent inhibition of human Factor XI mRNA, relative to untreated control cells (human Factor XI mRNA [8]; 2.34 nM): 14%
percent inhibition of human Factor XI mRNA, relative to untreated control cells (human Factor XI mRNA [8]; 4.69 nM): 34%
percent inhibition of human Factor XI mRNA, relative to untreated control cells (human Factor XI mRNA [8]; 9.375 nM): 49%
percent inhibition of human Factor XI mRNA, relative to untreated control cells (human Factor XI mRNA [8]; 18.75 nM): 70%
percent inhibition of human Factor XI mRNA, relative to untreated control cells (human Factor XI mRNA [8]; 37.5 nM): 84%
percent inhibition of human Factor XI mRNA, relative to untreated control cells (human Factor XI mRNA [8]; 75 nM): 93%
urine protein/creatinine ratio, After [9]: 21.3
urine protein/creatinine ratio, Before [9]: 0.8
